Assay results published in patent US7705156B2, “Heteroaryl (substituted)alkyl N-substituted sulfoximines as insecticides” (Dow AgroSciences LLC, priority 2006, dated 2010).
Read-outs that look alike come from different tables or passages of the source.

Tests used:
[1] = test system: Cotton Aphid (Aphis gossvpii); assay: Insecticidal test for cotton aphid in foliar spray assay; assay type: in vivo; settings: for pest or weed control at 50 ppm / pest or weed control at 200 ppm: 72 h; for pest or weed control at 50 ppm: read-out: CA 50: % control at 50 ppm against cotton aphid in foliar spray tests; for pest or weed control at 200 ppm: read-out: CA 200: % control at 200 ppm against cotton aphid in foliar spray tests; for % Control at ppm against cotton aphid on squash, foliar spray, 0.781 ppm / % Control at ppm against cotton aphid on squash, foliar spray, 3.125 ppm / % Control at ppm against cotton aphid on squash, foliar spray, 12.5 ppm / % Control at ppm against cotton aphid on squash, foliar spray, 50 ppm: rundown assay
Experimental: Insecticidal Test for Cotton Aphid (Aphis gossvpii) in Foliar Spray Assay
Squash with fully expanded cotyledon leaves were trimmed to one cotyledon per plant and infested with cotton aphid (wingless adult and nymph) 1 day prior to chemical application. Each plant was examined before chemical application to ensure proper infestation (ca. 30-70 aphids per plant). Compounds (2 mg) were dissolved in 2 ml of acetone:methanol (1:1) solvent, forming stock solutions of 1000 ppm. The stock solutions were diluted 5× with 0.025% Tween 20 in H2O to obtain the highest test solution at 200 ppm. Lower test concentrations (50, 12.5, 3.13 and 0.78 ppm) were prepared by making sequential 4× dilutions from the 200 ppm solution with a diluent consisting 80 parts of 0.025% Tween 20 in H2O and 20 parts of acetone:methanol (1:1). A hand-held Devilbiss sprayer was used to apply the spray solutions until runoff to both sides of the squash cotyledon leaves. Four plants (4 replications) were used for each concentration of each compound. Reference plants (solvent check) were sprayed with the diluent only. Treated plants were held in a holding room for 3 days at approximately 23° C. and 40% RH before the number of live aphids on each plant was recorded. Insecticidal activity was measured by Corrected % Control using Abbott's correction formula and the values for the lower test concentrations are presented in Table 2: Corrected % Control=100*(X−Y)/X • where X=No. of live aphids on solvent check plants • Y=No. of live aphids on treated plants Insecticidal Test for Green Peach Aphid (Myzus persicae) in Foliar Spray Assay

[2] = test system: Green Peach Aphid (Myzus persicae); assay: Insecticidal test for green peach aphid in foliar spray assay; assay type: in vivo; settings: 72 h, foliar spray on cabbage seedlings, 3 days, Abbott-corrected; for pest or weed control at 200 ppm: read-out: GPA 200: % control at 200 ppm against green peach aphid in foliar spray tests; for pest or weed control at 50 ppm: read-out: GPA 50: % control at 50 ppm against green peach aphid in foliar spray tests
Experimental: Cabbage seedlings grown in 3-inch pots, with 2-3 small (3-5 cm) true leaves, were used as test substrate. The seedlings were infested with 20-50 green peach aphids (wingless adult and nymph) 2-3 days prior to chemical application. Four seedlings were used for each treatment. Compounds (2 mg) were dissolved in 2 ml of acetone:methanol (1:1) solvent, forming stock solutions of 1000 ppm. The stock solutions were diluted 5× with 0.025% Tween 20 in H2O to obtain the highest test solution at 200 ppm. A lower test concentration of 50 ppm was prepared by making a 4× dilution from the 200 ppm solution with a diluent consisting 80 parts of 0.025% Tween 20 in H2O and 20 parts of acetone: methanol (1:1). A hand-held Devilbiss sprayer was used for spraying a solution to both sides of cabbage leaves until runoff. Reference plants (solvent check) were sprayed with the diluent only. Treated plants were held in a holding room for three days at approximately 23° C. and 40% RH prior to grading. Evaluation was conducted by counting the number of live aphids per plant under a microscope. Insecticidal activity was measured by using Abbott's correction formula: Corrected % Control=100*(X−Y)/X • where X=No. of live aphids on solvent check plants • Y=No. of live aphids on treated plants The Corrected % Control values from the above assays are given in Table 2

[3] = 50 ppm, foliar spray on squash, 3 days, Abbott-corrected
[4] = 200 ppm, foliar spray on squash, 3 days, Abbott-corrected

SMILES | pest or weed control at 50 ppm [1, 3] | pest or weed control at 200 ppm [1, 4] | pest or weed control at 200 ppm [2] | pest or weed control at 50 ppm [2] | % Control at ppm against cotton aphid on squash, foliar spray, 0.781 ppm [1] | % Control at ppm against cotton aphid on squash, foliar spray, 3.125 ppm [1] | % Control at ppm against cotton aphid on squash, foliar spray, 12.5 ppm [1] | % Control at ppm against cotton aphid on squash, foliar spray, 50 ppm ([1]; 50 ppm) | pest or weed control at 50 ppm ([1]; foliar) | pest or weed control at 200 ppm ([1]; foliar)
COc1ccc(CC(c2ccc(Cl)nc2)S(C)(=O)=NC#N)cc1 (stereo not shown) [Compound 8] | 90 to 100% | 90 to 100% | – | – | – | – | – | – | – | –
CS(=O)(=NC#N)C(CC1CC1)c1ccc(Cl)nc1 (stereo not shown) [Compound 13] | 90 to 100% | 90 to 100% | – | – | – | – | – | – | – | –
C#CCC(c1ccc(Cl)nc1)S(C)(=O)=NC#N (stereo not shown) [Compound 14] | 90 to 100% | 90 to 100% | – | – | – | – | – | – | – | –
CS(=O)(=NC#N)C(C/C=C/Cl)c1ccc(Cl)nc1 (stereo not shown) [Compound 15] | 90 to 100% | 90 to 100% | – | – | – | – | – | – | – | –
CS(=O)(=NC#N)C1CCC(c2ccc(Cl)nc2)C1 (stereo not drawn) [Compound 4, cis and trans-[3-(6-chloropyridin-3-yl)cyclopentyl]-(methyl)oxido-λ^4-sulfanylidenecyanamide] | 70 to 79% | 90 to 100% | 80 to 89% | – | – | – | – | – | – | –
CS(=O)(=NC#N)[C@@H]1CCC[C@@H]1c1ccc(Cl)nc1 (stereo partly drawn) [Compound 3, cis-[2-(6-chloropyridin-3-yl)cyclopentyl](methyl)-oxido-λ^4-sulfanylidenecyanamide] | – | 60 to 69% | 60 to 69% | – | – | – | – | – | – | –
CS(=O)(=NC#N)C(Cc1ccc(Cl)cc1)c1ccc(Cl)nc1 (stereo not shown) [Compound 7] | 90 to 100% | 90 to 100% | – | – | – | – | – | – | – | –
CC(C)C(c1ccc(Cl)nc1)S(C)(=O)=NC#N (stereo not shown) [Compound 9] | 90 to 100% | 90 to 100% | – | – | – | – | – | – | – | –
CS(=O)(=NC#N)C(CCF)c1ccc(Cl)nc1 (stereo not shown) [Compound 12] | 90 to 100% | 90 to 100% | 90 to 100% | 90 to 100% | A (90-100) | A (90-100) | A (90-100) | A (90-100) | – | –
CS(=O)(=NC#N)C(Cc1ccc(Cl)nc1)c1ccc(Cl)nc1 (stereo not shown) [Compound 6] | 90 to 100% | 90 to 100% | – | – | – | – | – | – | – | –
CS(=O)(=NC#N)C(CC1CC1)c1ccc(C(F)(F)F)nc1 (stereo not shown) [Compound 2, {1-[6-(trifluoromethyl)pyridin-3-yl]-2-(cyclopropyl)ethyl}(methyl)oxido-λ^4-sulfanylidenecyanamide] | 90 to 100% | 90 to 100% | 70 to 79% | – | C (70-79) | A (90-100) | A (90-100) | A (90-100) | – | –
CS(=O)(=NC#N)C(C/C=C/Cl)c1ccc(C(F)(F)F)nc1 (stereo not shown) [Compound 17] | 90 to 100% | 90 to 100% | 90 to 100% | 70 to 79% | D (60-69) | B (80-89) | A (90-100) | A (90-100) | – | –
COCCC(c1ccc(Cl)nc1)S(C)(=O)=NC#N (stereo not shown) [Compound 10] | 90 to 100% | 90 to 100% | 60 to 69% | – | – | – | – | – | – | –
N#CN=S1(=O)CCC(c2ccc(C(F)(F)F)nc2)C1 (stereo not shown) [Compound 5, 1-oxido-3-[6-(trifluoromethyl)pyridin-3-yl]tetrahydro-1H-1λ^4-thien-1-ylidenecyanamide] | 90 to 100% | 90 to 100% | 80 to 89% | 50 to 59% | F (Less than 50) | C (70-79) | A (90-100) | A (90-100) | – | –
C#CCC(c1ccc(C(F)(F)F)nc1)S(C)(=O)=NC#N (stereo not shown) [Compound 16] | 90 to 100% | 90 to 100% | 90 to 100% | 80 to 89% | B (80-89) | A (90-100) | A (90-100) | A (90-100) | – | –
CC(C)C(c1ccc(C(F)(F)F)nc1)S(C)(=O)=NC#N (stereo not shown) [Compound 18] | 90 to 100% | 90 to 100% | 90 to 100% | 60 to 69% | A (90-100) | A (90-100) | A (90-100) | A (90-100) | – | –
COCC(COC)(c1ccc(Cl)nc1)S(C)(=O)=NC#N (stereo not shown) [Compound 11] | 90 to 100% | 90 to 100% | – | – | – | – | – | – | – | –
CS(=O)(=NC#N)C(Cc1cscn1)c1ccc(Cl)nc1 (stereo not shown) [Compound 1, [1-(6-chloropyridin-3-yl)-2-(1,3-thiazol-4-yl)ethyl](methyl)oxido-λ^4-sulfanylidenecyanamide] | – | – | – | – | – | – | – | – | 90 to 100% | 90 to 100%
